Results published in PubChem BioAssay AID248 (DTP/NCI, 2004).
Where “and” joins values, the source holds several entries; their conditions need not be identical. Identical values can stand only once. Inconclusive results and toxic doses are left out. Cut-off read from the data, not from the text of the source: active = T/C of 150% or more; inactive = T/C below 125%.

Test system: L1210 leukemia ip in BDF1 mice, survival T/C
Assay: NCI In Vivo Anticancer Drug Screen. Data for tumor model L1210 Leukemia (intraperitoneal) in B6D2F1 (BDF1) mice
Details: endpoint: mean survival time, higher = longer survival
How it was run: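 Mice bearing the transplanted tumor received compound or vehicle. Survival of the treated group was divided by that of the vehicle-treated control group to give the ratio.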

[1] = dose: 100.0 mg/kg/injection, schedule: Q01DX009 (ip), vehicle: Klucel (hydroxypropylcellulose) (HPC)
[2] = dose: 200.0 mg/kg/injection, schedule: Q01DX009 (ip), vehicle: Klucel (hydroxypropylcellulose) (HPC)
[3] = dose: 400.0 mg/kg/injection, schedule: Q01DX009 (ip), vehicle: Klucel (hydroxypropylcellulose) (HPC)
[4] = dose: 100.0 mg/kg/injection, schedule: Q01DX001 (ip), vehicle: carboxymethylcellulose (CMC)
[5] = dose: 100.0 mg/kg/injection, schedule: Q04DX003 (ip), vehicle: saline with Tween-80
[6] = dose: 100.0 mg/kg/injection, schedule: Q01DX009 (ip), vehicle: saline with Tween-80
[7] = dose: 200.0 mg/kg/injection, schedule: Q01DX009 (ip), vehicle: saline with Tween-80
[8] = dose: 200.0 mg/kg/injection, schedule: Q04DX003 (ip), vehicle: saline with Tween-80
[9] = dose: 400.0 mg/kg/injection, schedule: Q01DX009 (ip), vehicle: saline with Tween-80
[10] = dose: 400.0 mg/kg/injection, schedule: Q04DX003 (ip), vehicle: saline with Tween-80
[11] = dose: 100.0 mg/kg/injection, schedule: Q04DX003 (ip), vehicle: saline
[12] = dose: 200.0 mg/kg/injection, schedule: Q04DX003 (ip), vehicle: saline
[13] = dose: 400.0 mg/kg/injection, schedule: Q04DX003 (ip), vehicle: saline
[14] = dose: 100.0 mg/kg/injection, schedule: Q01DX001 (ip), vehicle: saline
[15] = dose: 200.0 mg/kg/injection, schedule: Q01DX001 (ip), vehicle: saline
[16] = dose: 400.0 mg/kg/injection, schedule: Q01DX001 (ip), vehicle: saline
[17] = dose: 100.0 mg/kg/injection, schedule: Q04DX003 (ip), vehicle: carboxymethylcellulose (CMC)
[18] = dose: 100.0 mg/kg/injection, schedule: Q04DX003 (ip), vehicle: Klucel (hydroxypropylcellulose) (HPC)
[19] = dose: 200.0 mg/kg/injection, schedule: Q04DX003 (ip), vehicle: Klucel (hydroxypropylcellulose) (HPC)
[20] = dose: 400.0 mg/kg/injection, schedule: Q04DX003 (ip), vehicle: Klucel (hydroxypropylcellulose) (HPC)

Measured: T/C

Cc1cc(OCCOC(=O)Nc2ccccc2F)ccc1Cl
inactive: [1] 107 % of control | [2] 102 % of control | [3] 112 % of control

CCCCSc1ccc2c(cc1=O)C(NC(C)=O)CCc1cc(OC)c(OC)c(OC)c1-2 (centres undefined)
inactive: dose: 25.0 mg/kg/injection, schedule: Q04DX002 (ip), vehicle: saline 98 % of control | dose: 50.0 mg/kg/injection, schedule: Q04DX002 (ip), vehicle: saline 98 % of control | dose: 100.0 mg/kg/injection, schedule: Q04DX002 (ip), vehicle: saline 120 % of control

CN(C)CCC[N+]1([O-])c2ccccc2CCc2ccccc21
inactive: dose: 9.37 mg/kg/injection, schedule: Q01DX009 (ip), vehicle: saline 102 % of control | dose: 18.75 mg/kg/injection, schedule: Q01DX009 (ip), vehicle: saline 108 % of control | dose: 18.75 mg/kg/injection, schedule: Q04DX003 (ip), vehicle: saline 102 % of control | dose: 37.5 mg/kg/injection, schedule: Q01DX009 (ip), vehicle: saline 97 % of control | dose: 37.5 mg/kg/injection, schedule: Q04DX003 (ip), vehicle: saline 96 % of control | dose: 75.0 mg/kg/injection, schedule: Q01DX009 (ip), vehicle: saline 102 % of control | dose: 75.0 mg/kg/injection, schedule: Q04DX003 (ip), vehicle: saline 96 % of control | dose: 150.0 mg/kg/injection, schedule: Q04DX003 (ip), vehicle: saline 88 % of control

CC1(C)N=C(N)N=C(N)N1c1cccc(OCCOc2ccc(NC(=O)/C=C/C(=O)O)cc2)c1
inactive: [4] 101 % of control | dose: 200.0 mg/kg/injection, schedule: Q01DX001 (ip), vehicle: carboxymethylcellulose (CMC) 97 % of control | dose: 400.0 mg/kg/injection, schedule: Q01DX001 (ip), vehicle: carboxymethylcellulose (CMC) 94 % of control

N#CC1=C(N)CCCC1
inactive: [5] 104 % of control

Cc1ccc(S(=O)(=O)N/N=C/C(O)C(O)C(O)CO)cc1 (centres undefined)
inactive: [6] 94 % of control | [5] 94 % of control | [7] 103 % of control | [8] 94 % of control | [9] 96 % of control | [10] 96 % of control

CCC(=O)/C=C/C1C(C)=CCCC1(C)C (centres undefined)
inactive: [6] 86 % of control | [11] 100 % of control | [7] 90 % of control | [12] 102 % of control | [13] 100 % of control

CC(C)(CCl)COS(=O)(=O)c1ccc(Br)cc1
inactive: dose: 50.0 mg/kg/injection, schedule: Q01DX009 (ip), vehicle: saline with Tween-80 90 % of control | [6] 90 % of control

COc1ccc(Cl)cc1NC(=O)Oc1ccc(-c2ccccc2)cc1Cl
inactive: [6] 99 % of control | [7] 92 % of control | [9] 91 % of control

CC(=O)OC1=C(CC(C)C)C(=O)c2ccccc2C1=O
inactive: [14] 104 % of control | [15] 107 % of control | [16] 103 % of control

CS(=O)(=O)N(c1nc2ccccc2s1)S(C)(=O)=O
inactive: [17] 95 % of control | dose: 200.0 mg/kg/injection, schedule: Q04DX003 (ip), vehicle: carboxymethylcellulose (CMC) 93 % of control | dose: 400.0 mg/kg/injection, schedule: Q04DX003 (ip), vehicle: carboxymethylcellulose (CMC) 95 % of control

Cc1cc(CC#N)c(CC#N)cc1C
inactive: dose: 50.0 mg/kg/injection, schedule: Q01DX001 (ip), vehicle: carboxymethylcellulose (CMC) 110 % of control | dose: 50.0 mg/kg/injection, schedule: Q01DX009 (ip), vehicle: carboxymethylcellulose (CMC) 96 % of control and 117 % of control | dose: 50.0 mg/kg/injection, schedule: Q04DX002 (ip), vehicle: carboxymethylcellulose (CMC) 94 % of control and 102 % of control | dose: 50.0 mg/kg/injection, schedule: Q04DX003 (ip), vehicle: carboxymethylcellulose (CMC) 98 % of control | [4] 97 % of control | dose: 100.0 mg/kg/injection, schedule: Q01DX009 (ip), vehicle: carboxymethylcellulose (CMC) 100 % of control and 106 % of control | dose: 100.0 mg/kg/injection, schedule: Q04DX002 (ip), vehicle: carboxymethylcellulose (CMC) 102 % of control and 105 % of control | [17] 95 % of control | dose: 200.0 mg/kg/injection, schedule: Q01DX009 (ip), vehicle: carboxymethylcellulose (CMC) 96 % of control | dose: 200.0 mg/kg/injection, schedule: Q04DX002 (ip), vehicle: carboxymethylcellulose (CMC) 97 % of control and 107 % of control

C[CH2][Pb]([CH2]C)([CH2]C)[O]C(C)=O
inactive: dose: 0.62 mg/kg/injection, schedule: Q01DX009 (ip), vehicle: Klucel (hydroxypropylcellulose) (HPC) 96 % of control | dose: 1.25 mg/kg/injection, schedule: Q01DX009 (ip), vehicle: Klucel (hydroxypropylcellulose) (HPC) 102 % of control | dose: 2.5 mg/kg/injection, schedule: Q01DX009 (ip), vehicle: Klucel (hydroxypropylcellulose) (HPC) 93 % of control and 94 % of control | dose: 5.0 mg/kg/injection, schedule: Q01DX001 (ip), vehicle: carboxymethylcellulose (CMC) 100 % of control | dose: 5.0 mg/kg/injection, schedule: Q04DX003 (ip), vehicle: Klucel (hydroxypropylcellulose) (HPC) 90 % of control | dose: 10.0 mg/kg/injection, schedule: Q01DX001 (ip), vehicle: carboxymethylcellulose (CMC) 103 % of control | dose: 10.0 mg/kg/injection, schedule: Q04DX003 (ip), vehicle: Klucel (hydroxypropylcellulose) (HPC) 95 % of control

O=C(/C=C/c1ccc(O)cc1)c1ccc(Cl)cc1
inactive: [14] 98 % of control | [15] 87 % of control | [16] 90 % of control

COc1cccc(/C=C/c2nccc3ccccc23)c1OC
inactive: [1] 90 % of control | [18] 106 % of control | [2] 91 % of control | [19] 98 % of control | [3] 91 % of control | [20] 90 % of control

NC(=S)N/N=C/c1ccco1
inactive: dose: 25.0 mg/kg/injection, schedule: Q04DX003 (ip), vehicle: saline 105 % of control | dose: 50.0 mg/kg/injection, schedule: Q04DX003 (ip), vehicle: saline 109 % of control | [14] 101 % of control | [18] 93 % of control | [11] 94 % of control and 100 % of control | [15] 104 % of control | [19] 96 % of control | [20] 103 % of control

Cc1c(Cl)cccc1NC(=O)c1ccccc1Cl
inactive: [1] 94 % of control | [11] 122 % of control | [2] 94 % of control | [12] 108 % of control | [3] 95 % of control | [13] 108 % of control

CC(C)(C)NC[Si](C)(C)C
inactive: dose: 100.0 mg/kg/injection, schedule: Q01DX009 (ip), vehicle: saline 92 % of control

OC(/C(=C(/c1ccccc1)c1ccc(Cl)cc1)c1ccccc1)(c1ccccc1)c1ccccc1
inactive: [6] 98 % of control | [7] 95 % of control | [9] 98 % of control

CC1CCCC(CN=Cc2cc([N+](=O)[O-])ccc2O)[N-]1.CC1CCCC(CN=Cc2cc([N+](=O)[O-])ccc2O)[N-]1.[Ni+2] (centres undefined)
inactive: [6] 86 % of control | [5] 95 % of control | [7] 86 % of control | [8] 95 % of control | [10] 86 % of control
